In one test the test system is HLF cell membrane. In words: Binding assay of 3H-labeled Compound 1 using HLF cell membrane. On the set-up: species or system human. Conditions: 3H-labeled Compound 1, calculated by Scatchard plot. On the procedure: A cell membrane of a human liver-derived HLF cell was prepared as follows. HLF cells were approximately confluently cultured in a Dulbecco MEM medium containing 10% FCS in a cell culture dish having a diameter of 15 cm. The HLF cells cultured in 30 dishes were scraped by a cell scraper in the presence of an HMEE buffer (20 mM HEPES-KOH, 1 mM EDTA, 1 mM EGTA, and 2 mM MgCl2) to obtain about 30 ml of a cell suspension. The suspension was homogenized using a TEFLON (registered trademark) homogenizer (ice temperature, 1000 rpm, 15 stroke) and centrifuged at a low rate (1500 rpm, 5 minutes). […]
The binding assay of the ^3H-labeled Compound 1 on thus obtained cell membrane was carried out as follows. […] The filter plate was well washed with a TBS (20 mM Tris-HCl, 0.15 M NaCl, pH 7.4) containing 0.05% Twee-20 and sufficiently dried, 30 μl of a liquid scintillator (Microscinti 0, Packard) was added to the filter plate, and the ^3H count was measured by Topcount (Packard). […]
The inhibitory activity of each of the probe molecule compounds synthesized in Examples 2 and 7 to 10 against the binding of the ^3H-labeled Compound 1 to the HLF cell membrane was measured by the method described in Example 14 to confirm whether the probe compound could be bound to the binding protein like Compound 1. […]

Test [1] concerns Akt phosphorylation in human liver-derived HLF cell. In words: Akt phosphorylation activity in Gβ expression inhibited HLF cell (siRNA, Western blot). Particulars: FIG. 16. Type of test: cell-based. On the procedure:
The effect of Gβ expression inhibition by a siRNA method against the Akt phosphorylation activity of Compound 6 in a human liver-derived HLF cell was evaluated as follows.
The HLF cells were seeded in a Dulbecco MEM medium containing 10% FCS in a 24-well dish (IWAKI, Product No. 3820-024) at a ratio of 3.75×10^4 cells/well. The cells were cultured at 37° C. for 6 hours in the presence of 5% CO2 to achieve sufficient attachment, a siRNA was transfected into the cells at the concentration of 100 nM using Dharmafect 2 (Dharmacon, Product No. T-2002-02), and the resultant cells were cultured at 37° C. for 48 hours in the presence of 5% CO2. […] Each solution was subjected to an SDS polyacrylamide electrophoresis, and the phosphorylated Akt amount, the Gβ1 amount, the Gβ2 amount, and the Gβ4 amount were measured by a Western blot method using an anti-phosphorylated Akt antibody (Cell Signaling Technologies, Product No. 9271), an anti-Gβ1 antibody (SantaCruz, Product No. sc-379), an anti-Gβ2 antibody (SantaCruz, Product No. sc-380), and an anti-Gβ4 antibody (SantaCruz, Product No. sc-382). […]
(Immunoblotting shows a protein as a band on a membrane.)

For orientation: Kd means the equilibrium constant for the complex coming apart. In the case of `O=C1NCC2=C1[C@@H](c1cccc3ccsc13)N(C(=O)CCc1ccccn1)[C@@H]1CCCC[C@H]1N2` [Compound 1], the dissociation constant Kd with HLF cell membrane was 930 nM. For `O=C1NCC2=C1[C@@H](c1ccccc1)N(C(=O)CO)[C@@H]1CCCC[C@H]1N2` [Compound 6], the “phosphorylated Akt amount” value was “not detected at any Compound 6 concentration” in test [1] (HLF cells with Gβ siRNA (Gβ1, Gβ2, Gβ4)) and “increased depending on the Compound 6 concentration” in test [1] (HLF cells with negative control siRNA).

(Values after patent US9440980B2, “Remedy for diabetes” (EA Pharma Co., Ltd., priority 2007, dated 2016).)
